Experimental data published in patent US8450525B2, “Histone deacetylase inhibitors” (Orchid Chemicals & Pharmaceuticals Limited, priority 2007, dated 2013).

Assays:
HCT116 (colon) xenograft = type: in vivo; conditions: 100 mg/kg p.o. qdx21, HCT116 xenograft, vs vehicle treated control
Procedure: Experiments were carried out using 6-8 week old female […] SCID (Severe Combined Immune Deficient) mice. The mice were housed in Individually Ventilated Cages (IVC) at constant temperature (22±3° C.) and humidity (50±20%). They had free access to food and water. Tumors were obtained from ATCC, USA and maintained in vivo by subcutaneous (s.c.) passage of tumor fragments (app×30 mg) in healthy mice according to standard reported procedures. All the animal protocols were approved by the Institutional Animal Ethics Committee, ORLL, Chennai. Each experimental group included 6-8 mice bearing s.c. tumors. Tumors were implanted into the axillary region by puncturing using a Trocar, and tumor growth was monitored by measurement of tumor diameters with a Vernier caliper. Tumor Volume (TV) was calculated according to the following formula: TV (mm^3)=L×W^2×0.5,
Where L and W are the longest diameter and shortest diameter of the tumor, respectively. The compound treatment started when tumors were palpable (150-200 mm^3).
Test compound was administered by oral gavage in a volume of 5-10 ml/kg. […] Tumor size was measured twice every week and body weight was recorded daily prior to dosing.
Test compound (T) efficacy was assessed by calculating several parameters based on tumor volume (TV) with respect to untreated control (C). […]
Toxic effects of drug treatment were assessed by Body Weight Loss %. […]

acetylated Tubulin = experiment: Tubulin acetylation, sandwich ELISA in HCT116 cell lysate; type: cell-based; conditions: HCT116 cells, 4 hours, vs control
Procedure: (§1) The incubation lasted 18 hours for p21 induction. After incubation, cell lysates were prepared in cell lysis buffer by sonication on ice. The lysates were collected after centrifugation and subjected to ELISA test procedure. 100 μL of each diluted cell lysate in dilution buffer (1:1) was added to appropriate capture antibody coated microwells and incubated overnight at 4° C. After washing, 100 μL of detection antibody was added for 1 hour at 37° C. After second washing, 100 μL of HRP-linked secondary antibody was added for 30 minutes at 37° C. Finally, after appropriate washing, 100 μL of TMB substrate was added for 10 minutes at 37° C. followed by 100 μL, of stop solution. The absorbance of individual wells was read using a spectrophotometer at 450 nm (A450).

Acetylated histone (H3) = experiment: Histone (H3) acetylation, sandwich ELISA in HCT116 cell lysate; type: cell-based; conditions: HCT116 cells, 4 hours, vs control
Procedure: as §1

recombinant HDAC1 enzyme = molecular target: T1, recombinant HDAC1 enzyme (Homo sapiens, UniProt Q13547); experiment: HDAC1 inhibitory activity, recombinant enzyme; type: biochemical; conditions: recombinant HDAC1 (BIOMOL); read-out: HDAC1 inhibition (IC50)
T1 construct: purchased BIOMOL, USA
T1 sequence (Q13547 whole entry): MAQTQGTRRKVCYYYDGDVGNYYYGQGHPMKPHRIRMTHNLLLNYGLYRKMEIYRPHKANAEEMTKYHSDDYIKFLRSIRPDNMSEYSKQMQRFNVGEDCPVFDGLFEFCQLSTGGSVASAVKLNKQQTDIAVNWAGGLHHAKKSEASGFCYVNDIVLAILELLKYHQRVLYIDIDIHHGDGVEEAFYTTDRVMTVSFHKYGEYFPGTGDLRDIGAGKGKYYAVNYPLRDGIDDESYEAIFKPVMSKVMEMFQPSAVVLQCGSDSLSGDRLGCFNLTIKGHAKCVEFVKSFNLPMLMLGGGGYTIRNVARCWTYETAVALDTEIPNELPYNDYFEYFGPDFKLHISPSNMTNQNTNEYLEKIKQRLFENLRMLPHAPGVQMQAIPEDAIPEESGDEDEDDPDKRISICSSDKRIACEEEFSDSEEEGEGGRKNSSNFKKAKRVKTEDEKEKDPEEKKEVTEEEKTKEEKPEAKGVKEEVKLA
Procedure: Assay was done in 96-well black microplate and total volume of the assay was 100 μL. Mouse liver enzyme (10 mg/ml) was diluted 1:6 with HDAC buffer. Enzyme cocktail was made of 10 μL of diluted enzyme and 30 μL of HDAC buffer. 40 μl of enzyme cocktail followed by 10 μL of test compound (1 μM and 10 μM) or buffer (control) was added to each well. The plate was pre-incubated at 37° C. for 5 minutes. The HDAC reaction was started by adding 50 μl of HDAC substrate Boc-Lys (Ac)-AMC (Bachem AG, Switzerland). The plate was incubated at 37° C. for 30 minutes. The reaction was stopped by adding 100 μL of Trypsin stop solution and incubating at 37° C. for 15-30 minutes. Measuring the fluorescence at excitation wavelength of 360 nm and emission wavelength of 460 nm monitored the release of AMC. Buffer alone and substrate alone served as blank. […] (Dennis Wegener et al, Anal. Biochem, 321, 2003, 202-208).
Since the benzamide type compounds are known to have potential for HDAC class 1 specificity, active compounds were tested for HDAC1 inhibitory activity. The assay was carried out, as previously described using recombinant HDAC1 enzyme (BIOMOL, USA) and following manufacturer's instructions.

p21 = p21 induction, sandwich ELISA in HCT116 cell lysate; type: cell-based; conditions: HCT116 cells, 18 hours, vs control
Procedure: as §1

[1] = molecular target: T2, HDAC (Mouse Liver Extract); experiment: HDAC inhibition assay using Boc-Lys(Ac)-AMC substrate, mouse liver enzyme; type: biochemical;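 on IC50: IC50 for inhibition of HDAC activity in mouse liver extract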
T2 construct: Mouse liver enzyme (10 mg/ml) was diluted 1:6 with HDAC buffer

NCI-H460 (lung) cells = experiment: Anti-cancer screen, growth inhibition (MTT); type: cell-based; conditions: Homo sapiens, 48 hours of incubation
Method in brief: (§2)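 MTT added for 3 h at 37° C, formazan dissolved in DMSO and A570 read. A T0 plate was measured at compound addition.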

U251 (glioma) cells = experiment: Anti-cancer screen, growth inhibition (MTT); type: cell-based; conditions: Homo sapiens, U-251 cells, 48 hours of incubation
Method in brief: as §2

HCT 116 (colon) cells = experiment: Anti-cancer screen, growth inhibition (MTT); type: cell-based; conditions: Homo sapiens, HCT-116 cells, 48 hours of incubation
Method in brief: as §2

For `Nc1ccccc1NC(=O)c1ccc(/C=C(/C(=O)NC2CC2)c2ccc(F)cc2)cc1` [Example 105, (E)-N-(2-Aminophenyl)-4-(3-(cyclopropylamino)-2-(4-fluorophenyl)-3-oxoprop-1-en-1-yl)benzamide], the “maximum Tumor Volume Inhibition (TVI)” value (HCT116 (colon) xenograft) was 39.4%, the “μ-Tubulin Acetylation (Fold Increase)” value (acetylated Tubulin; 1 μM) was 2.22 and the “μ-Tubulin Acetylation (Fold Increase)” value (acetylated Tubulin; 10 μM) was 8.98. For the same molecule, the “H3 Acetylation (Fold Increase)” value (Acetylated histone (H3); 1 μM) was 1.24, the “H3 Acetylation (Fold Increase)” value (Acetylated histone (H3); 10 μM) was 6.67 and the IC50 (recombinant HDAC1 enzyme) was 0.077 µM. For the same molecule, the “P21 Induction (Fold Increase)” value (p21; 1 μM) was 1.05, the “P21 Induction (Fold Increase)” value (p21; 10 μM) was 2.50 and the IC50 [1] was 15.8 µM. For the same molecule, the “HDAC Inhibition % (1 μM)” value ([1]; 1 μM) was 46.0%, the “HDAC Inhibition % (10 μM)” value ([1]; 10 μM) was 71.3% and the GI50 (NCI-H460 (lung) cells) was 0.9 µM. For the same molecule, the GI50 (U251 (glioma) cells) was 4.8 µM and the GI50 (HCT 116 (colon) cells) was 1 µM.
